Experimental data taken from US10842806B2, “Methods for treating ocular inflammatory disorders” (Massachusetts Eye and Ear Infirmary, priority 2011, dated 2020).

Test system: WT BMDCs
Test: BMDC maturation with AICAR plus adenosine kinase inhibitor or nucleoside transporter inhibitor
Type: cell-based, mice
Settings: CD40, CD80, CD86, I-A^b by FACS
Description: FIG. 15 depicts the combined effect of AICAR and a nucleoside transporter or an adenosine kinase inhibitor on BMDC maturation. WT BMDCs were stimulated with LPS and 1 mM AICAR in the presence or absence of 0.1 mM IODO or 1 μM DPY. The number of CD11c-gated CD40, CD80, CD86 and I-A^b positive cells was measured by FACS. Bars represent mean±SD from three independent experiments. BMDCs were generated as previously described (Wang et al. (2005) IMMUNOL. LETT. 98:123-130). Briefly, bone marrow was flushed from the femurs and tibias of naive mice (6 to 8-week-old WT or AMPKα1 KO mice). The red blood cells were lysed using Red Blood Cell Lysing Buffer (Sigma). Approximately 2×10^6 cells were cultured in complete medium (RPMI 1640 medium containing 10% FBS, […], 10 mM HEPES [pH 7.4], 2 mM glutamine, 100 U/ml penicillin, and […]) including 10 ng/ml GM-CSF (Pepro Tech, London, England). Fresh media was added to the cells on day 4 of culture, and nonadherent cells and loosely adherent cells were collected as immature DCs on day 7. Immature DCs were stimulated with 100 ng/ml LPS (Salmonella typhimurium; Sigma) for 24 hours to obtain mature DCs. In some experiments, AICAR was added to the culture. […] To further study AICAR's suppressive effect, an adenosine kinase inhibitor (IODO) was used to inhibit AICAR conversion to ZMP. […]

| Effect on AICAR-mediated suppression of co-stimulatory molecule expression (1 μM DPY with LPS and 1 mM AICAR) | Effect on downregulation of co-stimulatory molecule expression by AICAR (0.1 mM IODO with LPS and 1 mM AICAR) | Compound |
| --- | --- | --- |
| reversed | – | OCCN(CCO)c1nc(N2CCCCC2)c2nc(N(CCO)CCO)nc(N3CCCCC3)c2n1 [DPY] |
| – | did not affect | Nc1ncnc2c1c(I)cn2[C@@H]1O[C@H](CO)[C@@H](O)[C@H]1O [IODO] |
